Data taken from patent US11780826B2 (Amgen Inc., priority 2017, dated 2023).

Tested on: Bovine cardiac myofibrils
Test: In vitro model of dose-dependent myofibril ATPase modulation (AC1.4, pyruvate kinase/lactate dehydrogenase-coupled ATPase assay at pCa25)
Type: biochemical
Conditions: concentration at which ATPase activity was 1.4-fold higher than the bottom of the dose curve, mean of a minimum of two independent tests
Method in brief: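 Detergent-skinned bovine cardiac myofibrils (typically 0.25-1.0 mg/ml) in Ca-buffered (EGTA/CaCl2) PK/LDH-coupled ATPase assay: 12 mM K-PIPES pH 6.80, 2 mM MgCl2, 1 mM ATP, 1 mM DTT, 0.5 mM NADH, 1.5 mM PEP. Hydrolysis followed at 340 nm; dose response fit to 4-parameter equation; AC1.4 is mean of ≥2 tests.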

Row | SMILES | AC1.4
1 | COc1ccc(CNC(=O)[C@H]2CCCN2C(=O)[C@H]2CCCN(S(=O)(=O)N3CC(C#N)C3)C2)cc1F [Example 457, 1-(((3S)-1-((3-cyano-1-azetidinyl)sulfonyl)-3-piperidinyl)carbonyl)-N-(3-fluoro-4-methoxybenzyl)-D-prolinamide] | 1.8865 µM
2 | Cc1cc(C(=O)N2[C@@H](C(=O)N[C@@H](c3ccc(C(F)(F)F)cc3F)C3CC3)C[C@H]3C[C@H]32)c(NC2CC2)cn1 [Example 458, (1R,3R,5R)-2-((5-(cyclopropylamino)-2-methyl-4-pyridinyl)carbonyl)-N-((R)-cyclopropyl(2-fluoro-4-(trifluoromethyl)phenyl)methyl)-2-azabicyclo[3.1.0]hexane-3-carboxamide] | 1.5845 µM
3 | CN(C)S(=O)(=O)c1cccc(C(=O)N2CCC[C@@H]2C(=O)NCc2ccc(C(F)(F)F)cc2F)c1 [Example 459, 1-(3-(dimethylsulfamoyl)benzoyl)-N-(2-fluoro-4-(trifluoromethyl)benzyl)-D-prolinamide] | 1.8995 µM
4 | N#CC1CC(S(=O)(=O)c2cccc(C(=O)N3CCCC[C@@H]3C(=O)NCc3ccc(C(F)(F)F)nc3)c2)C1 (stereo partly drawn) [Example 460, (R)-1-(3-((3-cyanocyclobutyl)sulfonyl)benzoyl)-N-((6-(trifluoromethyl)pyridin-3-yl)methyl)piperidine-2-carboxamide] | 1.915 µM
5 | O=C(NCc1ccc(C(F)(F)F)cc1)[C@H]1CCCN1C(=O)c1cccc(S(=O)(=O)N2CC(F)(F)C2)c1 [Example 461, 1-((3-((3,3-difluoro-1-azetidinyl)sulfonyl)phenyl)carbonyl)-N-(4-(trifluoromethyl)benzyl)-D-prolinamide] | 1.9174 µM
6 | C[C@H](NC(=O)[C@H]1CCCN1C(=O)[C@H]1CCCN(S(=O)(=O)N2CC(C#N)C2)C1)c1ccc(Cl)c(F)c1 [Example 462, N-((1S)-1-(4-chloro-3-fluorophenyl)ethyl)-1-(((3S)-1-((3-cyano-1-azetidinyl)sulfonyl)-3-piperidinyl)carbonyl)-D-prolinamide] | 1.9235 µM
7 | O=C(NCc1ccc(C(F)(F)F)cc1)[C@H]1CCCN1C(=O)[C@H]1CCCN(S(=O)(=O)N2CC(F)(c3ccccc3)C2)C1 [Example 463, 1-(((3S)-1-((3-fluoro-3-phenyl-1-azetidinyl)sulfonyl)-3-piperidinyl)carbonyl)-N-(4-(trifluoromethyl)benzyl)-D-prolinamide] | 1.9305 µM
8 | CS(=O)(=O)c1ccc(F)c(C(=O)N2CCC[C@@H]2C(=O)N[C@@H](c2ccc(C(F)(F)F)cc2F)C2CC2)c1 [Example 464, N-((R)-cyclopropyl(2-fluoro-4-(trifluoromethyl)phenyl)methyl)-1-(2-fluoro-5-(methylsulfonyl)benzoyl)-D-prolinamide] | 1.612 µM
9 | C[C@@H](NC(=O)[C@H]1CCCN1C(=O)[C@H]1CCCN(S(=O)(=O)N2CC(C#N)C2)C1)c1cccc(C(F)(F)F)c1 [Example 465, 1-(((3S)-1-((3-cyano-1-azetidinyl)sulfonyl)-3-piperidinyl)carbonyl)-N-((1R)-1-(3-(trifluoromethyl)phenyl)ethyl)-D-prolinamide] | 1.9455 µM
10 | C[C@@H](NC(=O)[C@H]1CCCN1C(=O)c1cccc(S(=O)(=O)N2CC(C)(O)C2)c1)c1ccc(C(F)(F)F)cc1 [Example 466, 1-(3-((3-hydroxy-3-methyl-1-azetidinyl)sulfonyl)benzoyl)-N-((1R)-1-(4-(trifluoromethyl)phenyl)ethyl)-D-prolinamide] | 1.961 µM
11 | O=C(NCc1ccc(C(F)(F)F)cc1)[C@H]1CCCN1C(=O)[C@H]1CCCN(S(=O)(=O)N2CC(O)(C(F)(F)F)C2)C1 [Example 467, 1-(((3S)-1-((3-hydroxy-3-(trifluoromethyl)-1-azetidinyl)sulfonyl)-3-piperidinyl)carbonyl)-N-(4-(trifluoromethyl)benzyl)-D-prolinamide] | 1.9675 µM
12 | CC[C@H](NC(=O)[C@H]1CCCN1C(=O)[C@H]1CCCN(S(=O)(=O)N2CC(C#N)C2)C1)c1cc(F)cc(F)c1 [Example 468, 1-(((3S)-1-((3-cyano-1-azetidinyl)sulfonyl)-3-piperidinyl)carbonyl)-N-((1S)-1-(3,5-difluorophenyl)propyl)-D-prolinamide] | 1.9855 µM
13 | O=C(NCc1ccc(C(F)(F)F)cc1)[C@H]1CCCN1C(=O)[C@H]1CCCN(S(=O)(=O)N2CC(Nc3ccc(F)cc3)C2)C1 [Example 469, 1-(((3S)-1-((3-((4-fluorophenyl)amino)-1-azetidinyl)sulfonyl)-3-piperidinyl)carbonyl)-N-(4-(trifluoromethyl)benzyl)-D-prolinamide] | 1.9915 µM
14 | N#CC1CN(S(=O)(=O)N2CC[C@H](C(=O)N3CCC[C@@H]3C(=O)NCc3ccc(C(F)(F)F)cc3F)C2)C1 [Example 470, 1-(((3S)-1-((3-cyano-1-azetidinyl)sulfonyl)-3-pyrrolidinyl)carbonyl)-N-(2-fluoro-4-(trifluoromethyl)benzyl)-D-prolinamide] | 1.9915 µM
15 | O=C(N[C@@H](c1cc(F)c(Cl)cc1F)C1COC1)[C@H]1C[C@H]2C[C@H]2N1C(=O)c1cc(C2CC2)ccn1 [Example 471, (1R,3R,5R)-N-((R)-(4-chloro-2,5-difluorophenyl)(3-oxetanyl)methyl)-2-((4-cyclopropyl-2-pyridinyl)carbonyl)-2-azabicyclo[3.1.0]hexane-3-carboxamide] | 1.996 µM
16 | Cc1ccc(C(=O)N2[C@@H](C(=O)N[C@@H](c3cc(F)c(Cl)cc3F)C3COC3)C[C@H]3C[C@H]32)cc1S(C)(=O)=O [Example 472, (1R,3R,5R)-N-((R)-(4-chloro-2,5-difluorophenyl)(3-oxetanyl)methyl)-2-(4-methyl-3-(methylsulfonyl)benzoyl)-2-azabicyclo[3.1.0]hexane-3-carboxamide] | 1.807 µM
17 | O=C1NCCCCC1NS(=O)(=O)N1CCC[C@H](C(=O)N2CCC[C@@H]2C(=O)NCc2ccc(C(F)(F)F)cc2)C1 (stereo partly drawn) [Example 473, (2R)-1-((3S)-1-(N-(2-oxoazepan-3-yl)sulfamoyl)piperidine-3-carbonyl)-N-(4-(trifluoromethyl)benzyl)pyrrolidine-2-carboxamide] | 2.035 µM
18 | CS(=O)(=O)c1cccc(C(=O)N2C[C@@H]3C[C@@H]3[C@@H]2C(=O)N[C@@H](c2ccc(C(F)(F)F)cc2F)C2CC2)c1 [Example 484, (1S,2R,5R)-N-((R)-cyclopropyl(2-fluoro-4-(trifluoromethyl)phenyl)methyl)-3-(3-(methylsulfonyl)benzoyl)-3-azabicyclo[3.1.0]hexane-2-carboxamide] | 2.014 µM

Further lines, results first:

Row | AC1.4 | SMILES
19 | 2.036 µM | COC1CCN(S(=O)(=O)c2cccc(C(=O)N3CCC[C@@H]3C(=O)NCc3ccc(C(F)(F)F)cc3)c2)CC1 [Example 474, 1-((3-((4-methoxy-1-piperidinyl)sulfonyl)phenyl)carbonyl)-N-(4-(trifluoromethyl)benzyl)-D-prolinamide]
20 | 1.866 µM | CS(=O)(=O)c1cccc(C(=O)N2CC3(CCC3)[C@@H]2C(=O)N[C@@H](c2ccc(C(F)(F)F)cc2F)C2CC2)c1 [Example 475, (1R)-N-((R)-cyclopropyl(2-fluoro-4-(trifluoromethyl)phenyl)methyl)-2-(3-(methylsulfonyl)benzoyl)-2-azaspiro[3.3]heptane-1-carboxamide]
21 | 2.071 µM | O=C(O[C@@H]1CC(C(=O)N[C@@H](c2cc(F)c(Cl)cc2F)C2COC2)N(C(=O)c2ccnc(C(F)F)c2)C1)c1ccnc(C(F)F)c1 (stereo partly drawn) [Example 476, (3R,5R)-5-(((R)-(4-chloro-2,5-difluorophenyl)(3-oxetanyl)methyl)carbamoyl)-1-((2-(difluoromethyl)-4-pyridinyl)carbonyl)-3-pyrrolidinyl2-(difluoromethyl)-4-pyridinecarboxylate]
22 | 2.0765 µM | O=C(NCc1ccc(C(F)(F)F)cc1)[C@H]1CCCN1C(=O)[C@H]1CCCN(S(=O)(=O)N2CC(c3ccc(F)cc3)C2)C1 [Example 477, 1-(((3S)-1-((3-(4-fluorophenyl)-1-azetidinyl)sulfonyl)-3-piperidinyl)carbonyl)-N-(4-(trifluoromethyl)benzyl)-D-prolinamide]
23 | 2.082 µM | CN(C)S(=O)(=O)c1cccc(C(=O)N2C[C@H]3C[C@H]3[C@@H]2C(=O)NCc2ccc(C(F)(F)F)cc2)c1 [Example 478, (1R,2R,5S)-3-(3-(dimethylsulfamoyl)benzoyl)-N-(4-(trifluoromethyl)benzyl)-3-azabicyclo[3.1.0]hexane-2-carboxamide]
24 | 1.887 µM | CS(=O)(=O)c1cccc(C(=O)N2CCC[C@@H]2C(=O)N[C@@H](c2ccc(Cl)cc2F)C2CC2)c1 [Example 479, N-((R)-(4-chloro-2-fluorophenyl)(cyclopropyl)methyl)-1-(3-(methylsulfonyl)benzoyl)-D-prolinamide]
25 | 2.1525 µM | O=C(N[C@@H](c1ccc(C(F)(F)F)cc1F)C1COC1)[C@H]1C[C@H]2C[C@H]2N1C(=O)c1ccnc(C(F)F)c1 [Example 480, (1R,3R,5R)-2-((2-(difluoromethyl)-4-pyridinyl)carbonyl)-N-((R)-(2-fluoro-4-(trifluoromethyl)phenyl)(3-oxetanyl)methyl)-2-azabicyclo[3.1.0]hexane-3-carboxamide]
26 | 1.945 µM | CS(=O)(=O)c1cccc(C(=O)N2CCC[C@@H]2C(=O)NC(c2ccc(C(F)(F)F)cc2)C2CNC(=O)C2)c1 (stereo partly drawn) [Example 482]
27 | 2.168 µM | O=C(NCc1ccc(C(F)(F)F)cc1)[C@H]1CCCN1C(=O)[C@H]1CCCN(S(=O)(=O)N2CC(C3CCC3)C2)C1 [Example 483, 1-(((3S)-1-((3-cyclobutyl-1-azetidinyl)sulfonyl)-3-piperidinyl)carbonyl)-N-(4-(trifluoromethyl)benzyl)-D-prolinamide]
